Results as given in the supplement of paper PMC11208160.

Test: recombinant barcode read abundance after kanamycin selection (control-corrected) (log10(CPM+1)); higher = more efficient recombination; sequences stand for … in AGTGCAGAGAAAATCGGCCAGTTTTCTCTGCCTGCAGTCCGCATGCCGT…AGATTTATGCAGCGGACTGCCTTTCTCCCAAAGTGATAAACCGGACAGTATCATGGACCGGTTTTCCCGGTAATCCGTATTTGCAAGGTTGGTTTCACT; site = the 11-nt target
Method in brief: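 This pooled E. coli screen matched targets with IS621 bridge RNA target-binding loops. Plating was done in duplicate on chloramphenicol/ampicillin LB agar as a control and on chloramphenicol/ampicillin/kanamycin plus 0.1 mM IPTG. Recombination efficiency reflects barcode counts at recombinant junctions as counts per million, averaged and control-corrected. The figures are log10(CPM+1).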
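Further: IS621 recombinase and bridge RNA in Escherichia coli cells.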

Sequence	recombinant barcode read abundance (log10)
CTCCCGACTTGGGTTCTAACCTGTTGCGC (site AGAGTAGCTTA)	0.119
CTCCCGACTTGGGTTCTAACCTGTTGCGC (site CTCCCGACTGC)	2.08
CTCCCTGCTTGGGTTCTAACCTGTTGCCT (site CTCCCTGCTAG)	1.1
CTCCCTGCTTGGGTTCTAACCTGTTGCCT (site GAGGTCCCTCC)	0.0158
CTCCGCCCTTGGGTTCTAACCTGTTGCTT (site CTCCGACCTAA)	0.121
CTCCGCCCTTGGGTTCTAACCTGTTGCTT (site CTCCGCCCTAA)	0.578
CTCCGCCCTTGGGTTCTAACCTGTTGCTT (site CTCCGGCCTAA)	0.106
CTCCGCCCTTGGGTTCTAACCTGTTGCTT (site CTCCGTCCTAA)	0.0629
CTCCGCTCTTGGGTTCTAACCTGTTGCCT (site ATCCGCTCTAG)	0.211
CTCCGCTCTTGGGTTCTAACCTGTTGCCT (site CTCCGCTCTAG)	2.28
CTCCGCTCTTGGGTTCTAACCTGTTGCCT (site GTCCGCTCTAG)	0.0686
CTCCGCTCTTGGGTTCTAACCTGTTGCCT (site TTCCGCTCTAG)	0.113
CTCCGTCCTTGGGTTCTAACCTGTTGCGT (site CTCCGCCCTAG)	0.23
CTCCGTCCTTGGGTTCTAACCTGTTGCGT (site CTCCGTCCTAC)	2.54
CTCGAATCTTGGGTTCTAACCTGTTGCTT (site CTCGAATCTAA)	0.897
CTCGAATCTTGGGTTCTAACCTGTTGCTT (site GGGATCCCTCC)	0.101
CTCGACCCTTGGGTTCTAACCTGTTGCAT (site CTCGACCCTAT)	2.4
CTCGACCCTTGGGTTCTAACCTGTTGCAT (site GGGCCTGCTTG)	1.66
CTCGATTCTTGGGTTCTAACCTGTTGCAT (site CTCAATTCTAT)	0.355
CTCGATTCTTGGGTTCTAACCTGTTGCAT (site CTCCATTCTAT)	0.194
CTCGATTCTTGGGTTCTAACCTGTTGCAT (site CTCGATTCTAT)	1.66
CTCGATTCTTGGGTTCTAACCTGTTGCAT (site CTCTATTCTAT)	0.213

Sequence	recombinant barcode read abundance (log10)
CTCGGTTCTTGGGTTCTAACCTGTTGCCT (site CTCGGTACTTG)	0.128
CTCGGTTCTTGGGTTCTAACCTGTTGCCT (site CTCGGTTCTAG)	1.41
CTCGTAACTTGGGTTCTAACCTGTTGCCT (site CTCGTAACTAG)	0.361
CTCGTAACTTGGGTTCTAACCTGTTGCCT (site CTCGTCACTAG)	0.0602
CTCGTAACTTGGGTTCTAACCTGTTGCCT (site CTCGTGACTAG)	0.123
CTCGTAACTTGGGTTCTAACCTGTTGCCT (site CTCGTTACTAG)	1.13
CTCTACACTTGGGTTCTAACCTGTTGCTG (site CTCGACACTCA)	0.116
CTCTACACTTGGGTTCTAACCTGTTGCTG (site CTCTACACTCA)	1.13
CTCTACTCTTGGGTTCTAACCTGTTGCCT (site CTCTACTCTAG)	2.02
CTCTACTCTTGGGTTCTAACCTGTTGCCT (site TTCTACTCTAG)	0.0366
CTCTAGACTTGGGTTCTAACCTGTTGCTG (site CTCAAGACTCC)	0.0495
CTCTAGACTTGGGTTCTAACCTGTTGCTG (site CTCTAGACTCA)	1.82
CTCTAGGCTTGGGTTCTAACCTGTTGCCT (site CTCTAGGCTAG)	0.0135
CTCTAGGCTTGGGTTCTAACCTGTTGCCT (site CTCTCGGCTAG)	0.186
CTCTAGGCTTGGGTTCTAACCTGTTGCCT (site CTCTGGGCTAG)	0.202
CTCTAGGCTTGGGTTCTAACCTGTTGCCT (site CTCTTGGCTAG)	0.13
CTCTCATCTTGGGTTCTAACCTGTTGCCT (site CTCTCATCTAA)	0.125
CTCTCATCTTGGGTTCTAACCTGTTGCCT (site CTCTCATCTAG)	0.149
CTCTCGTCTTGGGTTCTAACCTGTTGCCT (site CTCTCGTCTAA)	0.11
CTCTCGTCTTGGGTTCTAACCTGTTGCCT (site CTCTCGTCTAC)	0.119
CTCTCGTCTTGGGTTCTAACCTGTTGCCT (site CTCTCGTCTAG)	0.944
CTCTCGTCTTGGGTTCTAACCTGTTGCCT (site CTCTCGTCTAT)	0.0858

Sequence	recombinant barcode read abundance (log10)
CTCTCTTCTTGGGTTCTAACCTGTTGCCT (site CTCTCTCCTAG)	0.0216
CTCTCTTCTTGGGTTCTAACCTGTTGCCT (site CTCTCTTCTAG)	0.114
CTCTGAGCTTGGGTTCTAACCTGTTGCAG (site ACTGCTCCTAG)	0.0584
CTCTGAGCTTGGGTTCTAACCTGTTGCAG (site CTCTGAGCTCT)	0.538
CTCTGCTCTTGGGTTCTAACCTGTTGCTT (site CACTCCTCTAA)	0.0518
CTCTGCTCTTGGGTTCTAACCTGTTGCTT (site CTCTGCTCTAA)	0.245
CTCTGTCCTTGGGTTCTAACCTGTTGCTG (site CTCTGTCCTCA)	0.374
CTCTGTCCTTGGGTTCTAACCTGTTGCTG (site GCTGAGACTAC)	0.0997
CTCTTCCCTTGGGTTCTAACCTGTTGCTT (site CTATTCCCTCA)	0.155
CTCTTCCCTTGGGTTCTAACCTGTTGCTT (site CTCTTCCCTAA)	0.594
CTCTTGTCTTGGGTTCTAACCTGTTGCTG (site CTCGTGTCTCT)	0.0114
CTCTTGTCTTGGGTTCTAACCTGTTGCTG (site CTCTTGTCTCA)	1.01
CTGAGAGCTTGGGTTCTAACCTGTTGCCT (site CAGAGAGCTAG)	0.319
CTGAGAGCTTGGGTTCTAACCTGTTGCCT (site CCGAGAGCTAG)	0.058
CTGAGAGCTTGGGTTCTAACCTGTTGCCT (site CGGAGAGCTAG)	0.156
CTGAGAGCTTGGGTTCTAACCTGTTGCCT (site CTGAGAGCTAG)	1.61
CTGAGCCCTTGGGTTCTAACCTGTTGCAT (site CGGAGCCCTCT)	0.0964
CTGAGCCCTTGGGTTCTAACCTGTTGCAT (site CTGAGCCCTAT)	1.09
CTGAGGACTTGGGTTCTAACCTGTTGCCT (site ATGAGGACTAG)	0.0813
CTGAGGACTTGGGTTCTAACCTGTTGCCT (site CTGAGGACTAG)	1.29
CTGAGGACTTGGGTTCTAACCTGTTGCCT (site GTGAGGACTAG)	0.0454
CTGAGGACTTGGGTTCTAACCTGTTGCCT (site TTGAGGACTAG)	0.325

Sequence	recombinant barcode read abundance (log10)
CTGATCACTTGGGTTCTAACCTGTTGCCT (site CTGATAACTAG)	0.0217
CTGATCACTTGGGTTCTAACCTGTTGCCT (site CTGATCACTAG)	1.03
CTGATCACTTGGGTTCTAACCTGTTGCCT (site CTGATGACTAG)	0.0708
CTGATCACTTGGGTTCTAACCTGTTGCCT (site CTGATTACTAG)	0.202
CTGCACCCTTGGGTTCTAACCTGTTGCAG (site CTGCACCCTCT)	0.477
CTGCACCCTTGGGTTCTAACCTGTTGCAG (site GCGCACCCTCT)	0.0743
CTGCATACTTGGGTTCTAACCTGTTGCCT (site CAGCATACTAG)	0.17
CTGCATACTTGGGTTCTAACCTGTTGCCT (site CCGCATACTAG)	0.217
CTGCATACTTGGGTTCTAACCTGTTGCCT (site CGGCATACTAG)	0.0131
CTGCATACTTGGGTTCTAACCTGTTGCCT (site CTGCATACTAG)	0.86
CTGCGCCCTTGGGTTCTAACCTGTTGCCT (site CTGAGCCCTAG)	0.0517
CTGCGCCCTTGGGTTCTAACCTGTTGCCT (site CTGCGCCCTAG)	1.1
CTGCGCCCTTGGGTTCTAACCTGTTGCCT (site CTGGGCCCTAG)	0.249
CTGCGCCCTTGGGTTCTAACCTGTTGCCT (site CTGTGCCCTAG)	0.567
CTGCGTGCTTGGGTTCTAACCTGTTGCCT (site CAGCGTGCTAG)	0.503
CTGCGTGCTTGGGTTCTAACCTGTTGCCT (site CCGCGTGCTAG)	0.909
CTGCGTGCTTGGGTTCTAACCTGTTGCCT (site CGGCGTGCTAG)	0.176
CTGCGTGCTTGGGTTCTAACCTGTTGCCT (site CTGCGTGCTAG)	0.83
CTGCTACCTTGGGTTCTAACCTGTTGCCT (site CAGCTACCTAG)	0.706
CTGCTACCTTGGGTTCTAACCTGTTGCCT (site CCGCTACCTAG)	0.386
